Patent US20250099609A1 (priority 2023, published 2025)

Columns and labels:
osteoclasts = assay: Osteoclast maturation (DAPI/Phalloidin staining); type: cell-based; details: without radiation
Method: This treatment was carried out without exposing the osteoclasts to radiation.

stem cells [1] = assay: Stem cell conversion to fat cells after radiation; type: cell-based; details: after exposure to radiation (IR 21d)
Method: All treatment was administered with radiation (IR 21d).
Radiation exposure, post-menopausal osteoporosis, and diabetes are conditions that cause stem cells to favor conversion to fat cells instead of conversion to bone cells. This process progresses to tissue dysfunction. Stem cells were treated with P7C3 or with cerium oxide nanoparticles (CNPs) after exposure to radiation. […] All treatment was administered with radiation (IR 21d).

stem cells [2] = assay: Bone mineral formation / new bone deposition after radiation (Alizarin red); type: cell-based; details: 14 days of culture; treatment 24 h or 48 h after radiation (7 Gy)
Method: Radiation reduces the ability of bone cells to produce bone. […] This is further confirmed when the cells are cultured over a longer period of 28 days.
The data showing assessed bone formation was supported by quantification of new bone deposition.
(**** p<0.000) The synergistic effect continues when treatment is administered more than 24 hours after radiation exposure.

mesenchymal stem cells = assay: Alkaline phosphatase (ALP) assay after radiation; type: cell-based; details: treatment 24 h or 48 h after ionizing radiation
Text: FIGS. 6A-B show results of an alkaline phosphatase (ALP) assay. The micrographs show assessed bone formation after treatment with P7C3, with cerium oxide nanoparticles (CNPs), or with a combination of P7C3 and CNPs.

[3] = test system: primary and metastatic cancer cell; assay: Primary and metastatic cancer cell growth; type: cell-based; details: at therapeutic levels
Text: This invention combines these two unique approaches as a bi-modal and multifunctional chimeric nanostrategy to combat against ionizing radiation-induced damage.

[4] = test system: post-menopausal osteoporosis; assay: Post-menopausal osteoporosis in animals; type: in vivo
Text: The above embodiments also relate to the field of medicine for an article of manufacture delivering a prophylactic and therapeutic tissue strategy for osteoporosis. The remarkable increase in average life expectancy during the 20th century ranks as one of society's greatest achievements. As a result, the world's elderly population (aged ≥65 years) continues to grow at an unprecedented rate. As the proportion of the oldest-old (aged >85 years) and length of life expectancy increases, a rise in age-related degenerating diseases, disability, and prolonged dependency is projected. Age-related bone loss and osteoporosis is inevitable in both men and women, and can lead to fragility fractures, immobility, and disability. Currently, bisphosphonate treatment and weight-bearing exercise are commonly used therapeutic approaches, but both with limited long-term success.

[5] = in vivo; cited from earlier work
bone = details: literature refs 15 and 19; cited from earlier work

## OC(CNc1ccccc1)Cn1c2ccc(Br)cc2c2cc(Br)ccc21 (centres unmarked) [P7C3, aminopropyl carbazole]
osteoclasts
  maturation of osteoclasts: stops the maturation of osteoclasts
Stem cells [1]
  fat formation from stem cells: inhibit fat formation
Stem cells [2]
  new bone deposition (micrographs): does not substantially increase new bone deposition
Mesenchymal stem cells
  alkaline phosphatase expression / conversion of stem cells to osteoblasts: limited upregulation
[3]
  primary and metastatic cancer cell growth: significantly reduces
[4]
  progression of post-menopausal osteoporosis: reduces the progression
[5]
  oral bioavailability: high oral bioavailability
bone
  countermeasure against ionizing radiation-induced bone damage and/or bone loss: effective countermeasure
